In US8076308B2, “Inhibition of autophagy genes in cancer chemotherapy” (British Columbia Cancer Agency, priority 2005, dated 2011):
Where two headings read alike, the source gives them in different places.

Assays:
[1] = test system: MCF-7 cells; assay: Detection of autophagy in tamoxifen treated MCF-7 cells (MDC, LC3-GFP, TEM); assay type: cell-based, human
Description: Assays for autophagy and cell viability: We used flow cytometry based methods and microscopy to analyze autophagy levels. Cells were stained with MDC and LT-G and first analyzed manually by fluorescence microscopy and then by flow cytometry using a BD® flow cytometer (FACSVANTAGE™ SE, BD, TFL FACS Facility, BCCRC). […] To confirm that these two populations represent a functional difference in autophagy levels, RNA and protein from these FACS sorted cell were subjected to QRT-PCR for the MAP1LC3b gene, a commonly accepted marker for autophagy (16). In addition, the two populations were analyzed by Transmission Electron Microscopy (TEM) for the presence of autophagosomes (9).
FIG. 8. […] B. MCF-7 cells treated with 10^-6 M tamoxifen. In panels A, B, & D, cells are stained with the autolysosomal marker, MDC, detected as punctate staining (e.g. arrows in B).
In panels C and D, autophagy is detected by LC3-GFP localization. C. Punctate GFP-LC3 in transient transfected MCF7 cells treated with TAM. […] In panel E-H, TEM analyses indicate that autolysosomes are abundant in tamoxifen treated MCF7 cell sorted MDC (+) populations but not untreated MCF7 cells. Representative image of an untreated MCF7 cell is shown in (E) with a magnified view of the same cell in (G). Panels (F) and (H) show a cell treated with 5 uM tamoxifen (72 hrs).

[2] = test system: FM3A murine breast tumour cells; conditions: literature (10); cited from earlier work
[3] = test system: MCF7 human breast carcinoma cells; conditions: literature (9), cited from earlier work

SMILES: CC/C(=C(\c1ccccc1)c1ccc(OCCN(C)C)cc1)c1ccccc1 [Tamoxifen]
- Autolysosomes by TEM ([1]; MCF7 cell treated with 5 uM tamoxifen (72 hrs), versus untreated): Numerous autolysosomes
- Induction of autophagy (MDC punctate staining, LC3-GFP localization) ([1]; MCF-7 cells, 10^-6 M tamoxifen): induces autophagy
- Induction of autophagy [2]: induce autophagy
- Induction of autophagy ([3]; listed as tamoxifen): undergo autophagy
- Induction of autophagy [3]: induce autophagy
